For 30 compounds, IC50 results are on record in patent publication US8058285B2, “Substituted pyrido [3′, 2′: 4, 5] thieno [3, 2-D] pyrimidines and pyrido [3′, 2′: 4, 5] furo [3, 2-D] pyrimidines used as inhibitors of the PDE-4 and/or the release of TNF-ALPHA” (The Medicines Company (Leipzig) GmbH, priority 2004, dated 2011).

As usually defined, the IC50 is the concentration that gives 50% inhibition.

In one test the target is T1, PDE-4A (Homo sapiens, UniProt P27815).
T1 construct: PDE-4A catalytic domain comprising amino acids 342-704; made in house; host or cells: Escherichia coli
Put plainly: PDE-4A inhibitory assay (SPA). The format is biochemical. Summed up: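 Human recombinant PDE-4A catalytic domain (aa 342-704), E. coli-expressed. SPA with 1 μM [^3H]-cAMP substrate in 100 mM Tris-HCl pH 7.5, 5 mM MgCl2, 1% DMSO; 20 min at 22° C. Non-specific activity with 100 μM rolipram subtracted.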

In a further test the test system is TNFα release. Put plainly: LPS-induced TNFα release in diluted human blood (ELISA). The format is cell-based. The settings on record: LPS 1 μg/ml, human blood diluted 1:5, 24 h; read-out: IC50 value in the TNFα inhibitory assay. The source says:
Isolated leukocytes can be stimulated for the release of cytokines in different ways. Lipopolysaccharides (LPS) are a stimulus for the investigation of the TNFα release. LPS is part of bacterial cell walls and is released when the bacteria are killed (by antibiotics or the natural immune system). LPS stimulates in particular the activity of phagocytizing leukocytes (tissue macrophages, granulocytes, monocytes) and causes the infiltration of leukocytes from the peripheral blood into the affected tissue. A cytokine of special significance for these mechanisms is TNFα which is secreted in large amounts by the affected cells. The main source are here monocytes and macrophages. TNFα initiates and prolongs the inflammatory process in cooperation with other mediators.
For the investigation of the effect on the LPS-induced TNFα release a method was used which was described by Marx, D., Tassabehji, M., Heer, S., Hüttenbrink, K.-B., and I. Szelenyi, Pulmonary Pharmacology & Therapeutics (2002) 15, 7-15. The method is briefly: Human blood was taken from various donors, rendered incoagulable by the addition of 10 mM Na citrate and diluted 1:5 with RPMI 1640 cell culture medium. The test substances were added to the blood samples at various concentrations. 15 min later, the leukocytes were stimulated by the addition of lipopolysaccharides (LPS) from Salmonella abortus equi at a final concentration of 1 μg/ml. After the incubation of the test batches at 37° C. and under 5% CO2 in a water-saturated air for 24 h, the blood was centrifuged and the TNFα concentration in the cell-free supernatant was accurately measured using a purchasable ELISA (BD Biosciences) according to the manufacturer's instructions.
(In an ELISA, binding on a coated surface is turned into a signal by an enzyme label.)

Structures can show the parent of a compound that is named as a salt.

T1 sequence (P27815 342-704): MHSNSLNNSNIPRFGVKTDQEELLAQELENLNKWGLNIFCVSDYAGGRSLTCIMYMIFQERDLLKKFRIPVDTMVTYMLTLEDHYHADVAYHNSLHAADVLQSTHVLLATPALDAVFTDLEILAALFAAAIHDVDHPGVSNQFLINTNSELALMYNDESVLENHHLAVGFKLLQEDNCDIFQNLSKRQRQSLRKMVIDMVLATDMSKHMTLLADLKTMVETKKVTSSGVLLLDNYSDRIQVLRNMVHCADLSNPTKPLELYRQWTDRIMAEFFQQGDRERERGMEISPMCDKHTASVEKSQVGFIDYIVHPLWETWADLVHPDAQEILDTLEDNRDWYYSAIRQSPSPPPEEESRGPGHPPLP

Turning to `Cc1cc(-c2ccccc2)nc2sc3c(N4CCNCC4)nc(OCCO)nc3c12` [2-(2-Hydroxy-ethoxy)-9-methyl-7-phenyl-4-(piperazin-1-yl)-pyrido[3′,2′:4,5]thieno[3,2-d]pyrimidine], the IC50 against PDE-4A is 2 to 50 nM; with TNFα release, below 2000 nM. Take `CCOc1nc(N2CCNCC2)c2sc3nc(C)c(Cc4ccc([N+](=O)[O-])cc4)c(C)c3c2n1` [2-Ethoxy-7,9-dimethyl-8-(4-nitro-benzyl)-4-(piperazin-1-yl)-pyrido[3′,2′:4,5]thieno[3,2-d]pyrimidine]: the IC50 is 2 to 50 nM on PDE-4A and below 2000 nM in the test with TNFα release. The like results for `CCOc1nc(N2CCNCC2)c2sc3nc(-c4ccc(OC)c(OC)c4)cc(C)c3c2n1` [2-Ethoxy-7-(3,4-dimethoxy-phenyl)-9-methyl-4-(piperazin-1-yl)-pyrido[3′,2′:4,5]thieno[3,2-d]pyrimidine] were, in that order, 2 to 50 nM and below 2000 nM.

In the case of `CCOc1nc(N2CCNCC2)c2sc3nc(-c4ccc(OC)cc4)cc(C)c3c2n1` [2-Ethoxy-7-(4-methoxy-phenyl)-9-methyl-4-(piperazin-1-yl)-pyrido[3′,2′:4,5]thieno[3,2-d]pyrimidine], the IC50 against PDE-4A is 2 to 50 nM; in the test on TNFα release it was below 2000 nM. The like results for `CCOc1nc(N2CCNCC2)c2sc3nc(-c4ccc(C(F)(F)F)cc4)cc(C)c3c2n1` [2-Ethoxy-7-(4-trifluoro-methyl-phenyl)-9-methyl-4-(piperazin-1-yl)-pyrido[3′,2′:4,5]thieno[3,2-d]pyrimidine] were, in that order, 2 to 50 nM and below 2000 nM. With `CCOc1nc(N2CCNCC2)c2sc3nc(C)cc(-c4ccccc4)c3c2n1` [2-Ethoxy-7-methyl-9-phenyl-4-(piperazin-1-yl)-pyrido[3′,2′:4,5]thieno[3,2-d]pyrimidine-hydrochloride], the IC50 in the test on TNFα release is below 2000 nM.

`CCOc1nc(N2CCNCC2)nc2c1sc1nc(-c3ccc(C(N)=O)cc3)cc(C(F)(F)F)c12` [4-(4-Ethoxy-9-trifluoromethyl-2-piperazin-1-yl-pyrido[3′,2′:4,5]thieno[3,2-d]pyrimidin-7-yl)-benzamide trifluoroacetate]: the IC50 in the test with TNFα release was below 2000 nM. On to `CCOc1nc(N2CCNCC2)nc2c1sc1nc(-c3ccncc3)cc(C(F)(F)F)c12` [4-Ethoxy-2-(piperazin-1-yl)-7-(4-pyridyl)-9-trifluoromethyl-pyrido[3′,2′:4,5]thieno[3,2-d]pyrimidine], for which the figures for the IC50 at PDE-4A and in the test on TNFα release were 2 to 50 nM and below 2000 nM, respectively. For `CCOc1nc(N2CCNCC2)nc2c1sc1nc(-c3cccnc3)cc(C(F)(F)F)c12` [4-Ethoxy-2-piperazin-1-yl-7-(3-pyridyl)-9-trifluoromethyl-pyrido[3′,2′:4,5]thieno[3,2-d]pyrimidine], in that order: 2 to 50 nM and below 2000 nM.

For `CCOc1nc(N2CCNCC2)nc2c1sc1nc(C)c(Cc3ccc([N+](=O)[O-])cc3)c(C)c12` [4-Ethoxy-7,9-dimethyl-8-(4-nitro-benzyl)-2-(piperazin-1-yl)-pyrido[3′,2′:4,5]thieno[3,2-d]pyrimidine], the IC50 against PDE-4A was 2 to 50 nM; in the test with TNFα release, below 2000 nM. For `CCOc1nc(N2CCNCC2)nc2c1sc1nc(-c3ccccc3)cc(-c3ccccc3)c12` [4-Ethoxy-7,9-diphenyl-2-(piperazin-1-yl)-pyrido[3′,2′:4,5]thieno[3,2-d]pyrimidine], in that order: 2 to 50 nM and below 2000 nM. `CCCOc1nc(N2CCNCC2)c2sc3nc(-c4ccc(OCC)cc4)cc(CC)c3c2n1` [7-(4-Ethoxy-phenyl)-9-ethyl-4-(piperazin-1-yl)-2-n-propoxy-pyrido[3′,2′:4,5]thieno[3,2-d]pyrimidine] displayed an IC50 against PDE-4A of 2 to 50 nM. The compound `CCOc1nc(N2CCNCC2)nc2c1sc1nc(-c3ccc(-c4c(C)noc4C)cc3)nc(C)c12` [7-(4-[3,5-Dimethyl-isoxazol-4-yl]-phenyl)-4-ethoxy-9-methyl-2-piperazin-1-yl-thieno[2,3-d:4,5-d′]dipyrimidine] yielded an IC50 on PDE-4A below 2 nM.

`CCCCOc1ccc(Oc2ccc(-c3nc(C)c4c(n3)sc3c(OCC)nc(N5CCNCC5)nc34)cc2)cc1` [7-(4-[4-n-Butoxy-phenoxy]phenyl)-4-ethoxy-9-methyl-2-piperazin-1-yl-thieno[2,3-d:4,5-d′]dipyrimidine] came in with an IC50 at PDE-4A of 2 to 50 nM. The same measure, in the same setting: the value for `CCOc1nc(N2CCNCC2)nc2c1sc1nc(-c3ccc(C(C)(C)C)cc3)nc(C)c12` [7-(4-tert-Butyl-phenyl)-4-ethoxy-9-methyl-2-piperazin-1-yl-thieno[2,3-d:4,5-d′]dipyrimidine] was 2 to 50 nM; that for `CCOc1nc(N2CCNCC2)nc2c1sc1nc(-c3ccc(-c4ccc(N)cc4)cc3)nc(C)c12` [7-(4′-Aminobiphen-4-yl)-4-ethoxy-9-methyl-2-piperazin-1-yl-thieno[2,3-d:4,5-d′]dipyrimidine] was below 2 nM. Still for that read-out and setting: with `CCOc1nc(N2CCNCC2)nc2c1sc1nc(Cc3ccccc3)nc(C)c12` [7-Benzyl-4-ethoxy-9-methyl-2-piperazin-1-yl-thieno[2,3-d:4,5-d′]dipyrimidine] the figure was 2 to 50 nM; with `CCOc1nc(N2CCNCC2)nc2c1sc1nc(N3CCOCC3)c3c(c12)CCC3` [7-Ethoxy-2,3-dihydro-4-morpholino-9-piperazin-1yl-1H-cyclopenta[4′,5′]pyrido[3′,2′:4,5]thieno[3,2-d]pyrimidine], 2 to 50 nM. Same read-out and setting: with `CCOc1nc(N2CCNCC2)nc2c1sc1nc(N3CCOCC3)c3c(c12)CCN(C)C3` [8-Ethoxy-3-methyl-5-morpholino-10-piperazin-1-yl-pyrimido[4′,5′:4,5]thieno[2,7]-1,2,3,4-tetrahydro-naphthyridine] the figure was 2 to 50 nM; with `CCOc1nc(N2CCNCC2)nc2c1sc1nc(N3CCN(C)CC3)c3c(c12)CCCC3` [8-Ethoxy-5-(N-methyl-piperazin-1-yl)-10-piperazin-1-yl-pyrimido[4′,5′:4,5]thieno[2,3-c]-1,2,3,4-tetrahydro-isoquinoline], 2 to 50 nM; with `CCOc1nc(N2CCNCC2)nc2c1sc1nc(-c3ccccc3)c3c(c12)CCCC3` [8-Ethoxy-5-phenyl-10-piperazin-1-yl-pyrimido[4′,5′:4,5]thieno[2,3-c]-1,2,3,4-tetrahydro-isoquinoline-hydrochloride], 2 to 50 nM. On to `CCOc1nc(N2CCNCC2)nc2c1sc1nc(N3CCCCC3)c3c(c12)CCCC3` [8-Ethoxy-5-piperidino-10-piperazin-1-yl-pyrimido[4′,5′:4,5]thieno[2,3-c]-1,2,3,4-tetrahydro-isoquinoline-hydrochloride], for which, on PDE-4A, the IC50 was in the range of 2 to 50 nM. The same measure, in the same setting: with `CCOc1nc(N2CCNCC2)nc2c1sc1nc(-c3ccc(Cl)cc3)cc(C(F)F)c12` [9-Difluoromethyl-7-(4-chloro-phenyl)-4-ethoxy-2-piperazin-1-yl-pyrido[3′,2′:4,5]thieno[3,2-d]pyrimidine] the figure was 2 to 50 nM; with `CCOc1nc(N2CCNCC2)nc2c1sc1nc(N3CCOCC3)c3c(c12)CCCCC3` [9-Ethoxy-6-morpholino-11-(piperazin-1-yl)-2,3,4,5-tetrahydro-1H-cyclohepta[4′,5′]pyrido[3′,2′:4,5]thieno[3,2-d]pyrimidine], 2 to 50 nM; with `Cc1cc(-c2ccccc2)nc2sc3c(OC(C)C)nc(N4CCNCC4)nc3c12` [9-Methyl-7-phenyl-2-(piperazin-1-yl)-4-iso-propoxy-pyrido[3′,2′:4,5]thieno[3,2-d]pyrimidine], 2 to 50 nM.

`Cc1cc(-c2ccccc2)nc2sc3c(N4CCNCC4)nc(OC(C)C)nc3c12` [9-Methyl-7-phenyl-4-(piperazin-1-yl)-2-iso-propoxy-pyrido[3′,2′:4,5]thieno[3,2-d]pyrimidine] had an IC50 against PDE-4A of 2 to 50 nM.

As for `CCCc1nc(N2CCNCC2)c2sc3nc(-c4ccccc4)cc(C)c3c2n1` [9-Methyl-7-phenyl-4-(piperazin-1-yl)-2-n-propyl-pyrido[3′,2′:4,5]thieno[3,2-d]pyrimidine], the IC50 at PDE-4A lay within 2 to 50 nM. On the same count and under the same terms, with `CCCOc1nc(N2CCNCC2)c2sc3nc(-c4ccccc4)cc(C)c3c2n1` [9-Methyl-7-phenyl-4-piperazin-1-yl-2-n-propoxy-pyrido[3′,2′:4,5]thieno[3,2-d]pyrimidine] the figure was 2 to 50 nM; with `CCOc1nc(N2CCNCC2)nc2c1sc1nc(-c3ccc(C)cc3)cc(CC(C)C)c12` [9-iso-Butyl-4-ethoxy-7-(4-methyl-phenyl)-2-(piperazin-1-yl)-pyrido[3′,2′:4,5]thieno-[3,2-d]pyrimidine], 2 to 50 nM; with `CCOc1nc(N2CCNCC2)c2sc3nc(-c4ccccc4)c4c(c3c2n1)CCCC4` [10-Ethoxy-5-phenyl-8-piperazin-1-yl-pyrimido[4′,5′:4,5]thieno[2,3-c]-1,2,3,4-tetrahydro-isoquinoline], 2 to 50 nM.
